Measured values reported in ChEMBL document CHEMBL1201862, “PubChem BioAssay data set” (2004).
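Each compound was tested at five concentrations against cells in 96-well plates for 48 hours. Abbreviation: GI50, concentration required for 50% inhibition of growth.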 The source made the active and inactive calls. Rule as the data show it: active = GI50 up to about 1.1 µM and inactive = higher.

Tests used:
Assay in all cases: DTP human tumour cell line panel, 48 h
SNB-19 = tested on: SNB-19
A498 = tested on: A498
DLD-1 = tested on: DLD-1
SK-MEL-5 = tested on: SK-MEL-5
SF-268 = tested on: SF-268
NCI-H460 = tested on: NCI-H460
HCT-15 = tested on: HCT-15
SF-539 = tested on: SF-539
OVCAR-3 = tested on: OVCAR-3
LOX IMVI = tested on: LOX IMVI
HCT-116 = tested on: HCT-116
LXFL 529 = tested on: LXFL 529
SK-MEL-28 = tested on: SK-MEL-28
NCI-H23 = tested on: NCI-H23
HT-29 = tested on: HT-29
OVCAR-8 = tested on: OVCAR-8
U-251 = tested on: U-251
SNB-78 = tested on: SNB-78
DMS-114 = tested on: DMS-114
OVCAR-4 = tested on: OVCAR-4
NCI-H522 = tested on: NCI-H522
CCRF-CEM = tested on: CCRF-CEM
HL-60 = tested on: HL-60
NCI-H226 = tested on: NCI-H226
786-0 = tested on: 786-0
RXF 393 = tested on: RXF 393
KM12 = tested on: KM12
IGROV-1 = tested on: IGROV-1
SK-OV-3 = tested on: SK-OV-3
UACC-62 = tested on: UACC-62
TK-10 = tested on: TK-10
SF-295 = tested on: SF-295
A549 = tested on: A549
M19-MEL = tested on: M19-MEL
SNB-75 = tested on: SNB-75
SN12C = tested on: SN12C
UACC-257 = tested on: UACC-257
UO-31 = tested on: UO-31
DMS-273 = tested on: DMS-273
Malme-3M = tested on: Malme-3M
K562 = tested on: K562
SK-MEL-2 = tested on: SK-MEL-2
ACHN = tested on: ACHN
MOLT-4 = tested on: MOLT-4
M14 = tested on: M14
HOP-18 = tested on: HOP-18
HOP-92 = tested on: HOP-92
EKVX = tested on: EKVX
CAKI-1 = tested on: CAKI-1
KM-20L2 = tested on: KM-20L2
COLO 205 = tested on: COLO 205
SW-620 = tested on: SW-620
HCC 2998 = tested on: HCC 2998
HOP-62 = tested on: HOP-62
OVCAR-5 = tested on: OVCAR-5
SR = tested on: SR

## CNC(=O)C(C)Oc1ccc(OCC2CCCCC2)cc1 (stereo not given)
SNB-19
  GI50: > 100 µM (inactive)
A498
  GI50: > 100 µM (inactive)
DLD-1
  GI50: > 100 µM (inactive)
SK-MEL-5
  GI50: 82.6 µM (inactive)
SF-268
  GI50: > 100 µM (inactive)
NCI-H460
  GI50: 50.4 µM (inactive)
HCT-15
  GI50: > 100 µM
SF-539
  GI50: > 100 µM (inactive)
OVCAR-3
  GI50: 26.4 µM (inactive)
LOX IMVI
  GI50: > 100 µM (inactive)
HCT-116
  GI50: > 100 µM (inactive)
LXFL 529
  GI50: 77.4 µM (inactive)
SK-MEL-28
  GI50: > 100 µM (inactive)
NCI-H23
  GI50: 35.6 µM (inactive)
HT-29
  GI50: 86.3 µM (inactive)
OVCAR-8
  GI50: > 100 µM (inactive)
U-251
  GI50: > 100 µM (inactive)
SNB-78
  GI50: > 100 µM (inactive)
DMS-114
  GI50: 59.7 µM (inactive)
OVCAR-4
  GI50: > 100 µM (inactive)
NCI-H522
  GI50: 25.2 µM (inactive)
CCRF-CEM
  GI50: > 100 µM (inactive)
HL-60
  GI50: 34.4 µM (inactive)
NCI-H226
  GI50: > 100 µM (inactive)
786-0
  GI50: > 100 µM (inactive)
RXF 393
  GI50: > 100 µM (inactive)
KM12
  GI50: > 100 µM (inactive)
IGROV-1
  GI50: > 100 µM (inactive)
SK-OV-3
  GI50: > 100 µM (inactive)
UACC-62
  GI50: > 100 µM (inactive)
TK-10
  GI50: > 100 µM (inactive)
SF-295
  GI50: 60.7 µM (inactive)
A549
  GI50: > 100 µM (inactive)
M19-MEL
  GI50: > 100 µM (inactive)
SNB-75
  GI50: 96.2 µM (inactive)
SN12C
  GI50: > 100 µM (inactive)
UACC-257
  GI50: 61.1 µM (inactive)
UO-31
  GI50: 31.7 µM (inactive)
DMS-273
  GI50: > 100 µM (inactive)
Malme-3M
  GI50: 25.3 µM (inactive)
K562
  GI50: 65 µM (inactive)
SK-MEL-2
  GI50: > 100 µM (inactive)
ACHN
  GI50: > 100 µM (inactive)
MOLT-4
  GI50: > 100 µM (inactive)
M14
  GI50: > 100 µM (inactive)
HOP-18
  GI50: 16.3 µM (inactive)

## CCC1(N=[N+]=[N-])C(=O)Nc2cc(C)ccc2C1=O (stereo not given)
SNB-19
  GI50: > 100 µM (inactive)
A498
  GI50: > 100 µM (inactive)
DLD-1
  GI50: > 100 µM (inactive)
HOP-92
  GI50: 46.1 µM (inactive)
SK-MEL-5
  GI50: 51.8 µM (inactive)
SF-268
  GI50: > 100 µM (inactive)
NCI-H460
  GI50: > 100 µM (inactive)
HCT-15
  GI50: 72.1 µM
EKVX
  GI50: 42.7 µM (inactive)
SF-539
  GI50: > 100 µM (inactive)
CAKI-1
  GI50: 36.9 µM (inactive)
OVCAR-3
  GI50: 45.6 µM (inactive)
LOX IMVI
  GI50: 86.5 µM (inactive)
HCT-116
  GI50: > 100 µM (inactive)
LXFL 529
  GI50: 38 µM (inactive)
SK-MEL-28
  GI50: > 100 µM (inactive)
NCI-H23
  GI50: 70.1 µM (inactive)
HT-29
  GI50: 89.9 µM (inactive)
KM-20L2
  GI50: > 100 µM (inactive)
OVCAR-8
  GI50: > 100 µM (inactive)
COLO 205
  GI50: 69.3 µM (inactive)
U-251
  GI50: 96.2 µM (inactive)
SNB-78
  GI50: 86.1 µM (inactive)
DMS-114
  GI50: 38.1 µM (inactive)
SW-620
  GI50: > 100 µM (inactive)
OVCAR-4
  GI50: > 100 µM (inactive)
HCC 2998
  GI50: > 100 µM (inactive)
NCI-H522
  GI50: 4.25 µM (inactive)
CCRF-CEM
  GI50: 34.3 µM (inactive)
HL-60
  GI50: 21.3 µM (inactive)
786-0
  GI50: > 100 µM (inactive)
KM12
  GI50: > 100 µM (inactive)
IGROV-1
  GI50: > 100 µM (inactive)
SK-OV-3
  GI50: > 100 µM (inactive)
UACC-62
  GI50: 62.2 µM (inactive)
TK-10
  GI50: > 100 µM (inactive)
SF-295
  GI50: > 100 µM (inactive)
A549
  GI50: > 100 µM (inactive)
M19-MEL
  GI50: 60.3 µM (inactive)
SNB-75
  GI50: > 100 µM (inactive)
SN12C
  GI50: 48.6 µM (inactive)
UACC-257
  GI50: 96.4 µM (inactive)
UO-31
  GI50: 46.7 µM (inactive)
HOP-62
  GI50: > 100 µM (inactive)
DMS-273
  GI50: 23 µM (inactive)
Malme-3M
  GI50: 68.1 µM (inactive)
K562
  GI50: 47.5 µM (inactive)
OVCAR-5
  GI50: > 100 µM (inactive)
SK-MEL-2
  GI50: > 100 µM (inactive)
ACHN
  GI50: 22.3 µM (inactive)
MOLT-4
  GI50: 39.4 µM (inactive)
M14
  GI50: 76.7 µM (inactive)
HOP-18
  GI50: 32.6 µM (inactive)

## COC1OC2=CCC3C(=O)NC(=O)C3C2[C@H](OCc2ccccc2)C1OCc1ccccc1 (stereo not given in full)
DLD-1
  GI50: 1.97 µM (inactive)
HOP-92
  GI50: 1.63 µM (inactive)
SK-MEL-5
  GI50: 19 µM (inactive)
NCI-H460
  GI50: 17.9 µM (inactive)
HCT-15
  GI50: 1.93 µM
EKVX
  GI50: 1.85 µM (inactive)
SF-539
  GI50: 17.3 µM (inactive)
OVCAR-3
  GI50: 1.71 µM (inactive)
LOX IMVI
  GI50: 1.73 µM (inactive)
SR
  GI50: 2.1 µM (inactive)
HCT-116
  GI50: 1.55 µM (inactive)
LXFL 529
  GI50: 1.68 µM (inactive)
SK-MEL-28
  GI50: 1.84 µM (inactive)
NCI-H23
  GI50: 2.22 µM (inactive)
HT-29
  GI50: 1.82 µM (inactive)
KM-20L2
  GI50: 2.25 µM (inactive)
OVCAR-8
  GI50: 1.6 µM (inactive)
U-251
  GI50: 18.7 µM (inactive)
SNB-78
  GI50: 2.03 µM (inactive)
SW-620
  GI50: 1.49 µM (inactive)
OVCAR-4
  GI50: 3.84 µM (inactive)
HCC 2998
  GI50: 3.74 µM (inactive)
NCI-H522
  GI50: 1.67 µM (inactive)
CCRF-CEM
  GI50: 1.15 µM (inactive)
HL-60
  GI50: 1.79 µM (inactive)
RXF 393
  GI50: 1.61 µM (inactive)
KM12
  GI50: 5.9 µM (inactive)
IGROV-1
  GI50: 2.04 µM (inactive)
SK-OV-3
  GI50: 17.1 µM (inactive)
UACC-62
  GI50: 2.46 µM (inactive)
TK-10
  GI50: 1.72 µM (inactive)
SF-295
  GI50: 18.1 µM (inactive)
A549
  GI50: 18.9 µM (inactive)
SNB-75
  GI50: 17.3 µM (inactive)
SN12C
  GI50: 1.74 µM (inactive)
UACC-257
  GI50: 2.09 µM (inactive)
UO-31
  GI50: 17.7 µM (inactive)
HOP-62
  GI50: 17.9 µM (inactive)
Malme-3M
  GI50: 1.77 µM (inactive)
K562
  GI50: 1.82 µM (inactive)
OVCAR-5
  GI50: 15.7 µM (inactive)
SK-MEL-2
  GI50: 5.36 µM (inactive)
ACHN
  GI50: 19.9 µM (inactive)
MOLT-4
  GI50: 1.5 µM (inactive)
M14
  GI50: 1.81 µM (inactive)
HOP-18
  GI50: 3.48 µM (inactive)
